# Assay results taken from patent US12370143B2, “Compound or salt thereof and lipid particles” (FUJIFILM Corporation, priority 2018, dated 2025).
# Experiments:
# [1] = Encapsulation rate of siRNA in nucleic acid lipid particles (Luc2-siRNA); type: physicochemical; settings: compound/DSPC/cholesterol/DMG-PEG2000 50/10/38.5/1.5
# Method: (§1) The compounds described in Table 2, L-α-distearoylphosphatidylcholine (trade name: COATSOME® MC-8080; NOF corporation), cholesterol (trade name: Choesterol HP; NIPPON FINE CHEMICAL CO., LTD.), and 1,2-dimyristoyl-rac-glycero-3-(methylpolyoxyethylene 2000) (hereinafter, called DMG-PEG2000) (trade name: SUNBRIGHT® GM-020; NOF corporation) were dissolved in ethanol at a molar ratio of 50/10/38.5/1.5 such that the total lipid concentration became 20 mmol/L, thereby obtaining an oil phase.
# (§2) An aqueous nucleic acid solution obtained by dissolving 5 mg of Luc2-siRNA having the sequence described in Biomacromolecules (2013) 14, p. 3905 in 1 mL of sterile water was diluted with 10 mmol/L acetate buffer having a pH 4 such that the nucleic acid concentration became 19.7 μmol/L, thereby obtaining a water phase. Then, the water phase and the oil phase were mixed together by a micromixer (see JP5288254B) using a syringe pump such that the volume ratio of water phase:oil phase became 3:1 (final ratio of siRNA/lipid=339 (mol/mol)), and the mixed solution was diluted 2× with PBS, thereby obtaining a dispersion liquid of nucleic acid lipid particles. The dispersion liquid was dialyzed (Slide-A-Lyzer G2, MWCO: 10 kD, Thermo Fisher Scientific) using a phosphate buffered saline such that ethanol was removed, thereby obtaining nucleic acid lipid particles.
# A 3 mol/L aqueous sodium acetate solution (30 μL) and 9 μL of glycogen were added to 60 μL of the lipid particles retaining nucleic acids, and then 1.5 mL of ethanol was added thereto such that only the nucleic acids were precipitated while the lipid was dissolved. Then, the supernatant was removed by centrifugation. After the precipitates were air-dried for 15 minutes or longer, water was added thereto such that the precipitates were redissolved, and the concentration thereof was measured using Nanodrop NF1000 (Thermo Fisher Scientific), thereby quantifying the total nucleic acid concentration.
# The nucleic acid concentration was quantified using a Quant-iT RiboGreen RNA Assay Kit (Thermo Fisher Scientific) according to the protocol. First, a 20×TE buffer included in the above kit was diluted with water, thereby obtaining a 1×TE buffer. TE represents Tris/EDTA (ethylenediaminetetraacetic acid). In order to quantify only the nucleic acid in the outer water phase, the dispersion liquid of lipid particles retaining nucleic acids was diluted 10,000× with the 1×TE buffer.
# The 10,000× diluted dispersion liquid of lipid particles (100 μL) was put in a 96-well plate, then 100 μL of a RiboGreen reagent (reagent included in the Quanti-iT Ribogreen RNA Assay Kit described above) diluted 2000× with the 1×TE buffer was added to a sample, and fluorescence (excitation wavelength: 485 nm, fluorescence wavelength: 535 nm) was measured using a plate reader Infinit EF200 (TECAN), thereby quantifying the nucleic acid concentration in the outer water phase.
# By using the total nucleic acid concentration obtained through the above steps and the quantified nucleic acid concentration in the outer water phase, the nucleic acid encapsulation rate of the nucleic acid lipid particles was calculated according to the following Equation. Nucleic acid encapsulation rate (%)=(total nucleic acid concentration−nucleic acid concentration in outer water phase)/total nucleic acid concentration×100 The results are shown in Table 2.
# [2] = Particle size of nucleic acid lipid particles (Luc2-siRNA); type: physicochemical; settings: compound/DSPC/cholesterol/DMG-PEG2000 50/10/38.5/1.5
# Method: By using the dispersion liquid of lipid particles as it was, the particle size of the lipid particles was measured using a zeta potential/particle size measurement system ELS-Z2 (Otsuka Electronics Co., Ltd.).
# as §1, §2
# The particle size of the nucleic acid lipid particles was measured by the same method as that in <Preparation of lipid particles>.
Nucleic acid encapsulation rate [1],Particle size (nm) [2],SMILES
78%,80.5 nm,"CCCCC/C=C\C/C=C\CCCCCCCCN(CCCCCCCC/C=C\C/C=C\CCCCC)C(=O)OCCCN(C)CCN(C)C [Example 2, 3-((2-(Dimethylamino)ethyl)(methyl)amino)propyl di((9Z,12Z)-octadeca-9,12-dien-1-yl)carbamate]"
78%,73.8 nm,"CCCCC/C=C\C/C=C\CCCCCCCCN(CCCCCCCC/C=C\C/C=C\CCCCC)C(=O)OCCN(C)CCN1CCOCC1 [Example 5, 2-(Methyl(2-morpholinoethyl)amino)ethyl di((9Z,12Z)-octadeca-9,12-diene-1-yl)carbamate]"
78%,113.5 nm,"CCCCC/C=C\C/C=C\CCCCCCCCN(CCCCCCCC/C=C\C/C=C\CCCCC)C(=O)OCCN(CC)CCN1CCOCC1 [Example 6, 2-(Ethyl(2-morpholinoethyl)amino)ethyl di((9Z,12Z)-octadeca-9,12-dien-1-yl)carbamate]"
83%,81.4 nm,"CCCCC/C=C\C/C=C\CCCCCCCCN(CCCCCCCC/C=C\C/C=C\CCCCC)C(=O)OCCN(C)CCCN(C)C [Example 8, 2-((3-(Dimethylamino)propyl)(methyl)amino)ethyl di((9Z,12Z)-octadeca-9,12-dien-1-yl)carbamate]"
84%,217.2 nm,"CCCCCC/C=C\COC(=O)CCCCCCCN(CCCCCCCC(=O)OC/C=C\CCCCCC)C(=O)OCCN(C)CCN(C)C [Example 11, (Z)-non-2-en-1-yl 2,5-dimethyl-10-(8-(((Z)-non-2-en-1-yl)oxy)-8-oxooctyl)-9-oxo-8-oxa-2,5,10-triazaoctadecan-18-oate]"
100%,254.2 nm,"CCCCCC/C=C/COC(=O)CCCCCCCN(CCCCCCCC(=O)OC/C=C/CCCCCC)C(=O)OCCN(C)CCN(C)C [Example 12, (E)-non-2-en-1-yl 2,5-dimethyl-10-(8-(((E)-non-2-en-1-yl)oxy)-8-oxooctyl)-9-oxo-8-oxa-2,5,10-triazaoctadecan-18-oate]"
88%,140.3 nm,"CCCCCCCCCOC(=O)CCCCCCCN(CCCCCCCC(=O)OCCCCCCCCC)C(=O)OCCN(C)CCN(C)C [Example 13, Nonyl 2,5-dimethyl-10-(8-(nonyloxy)-8-oxooctyl)-9-oxo-8-oxa-2,5,10-triazaoctadecan-18-oate]"
76%,219.0 nm,"CCCCCC/C=C\COC(=O)OCCCCCCN(CCCCCCOC(=O)OC/C=C\CCCCCC)C(=O)OCCN(C)CCN(C)C [Example 14, 2-((2-(Dimethylamino)ethyl)(methyl)amino)ethyl bis(6-(((((Z)-non-2-en-1-yl)oxy)carbonyl)oxy)hexyl)carbamate]"
83%,122.8 nm,"CCCCCCCC/C=C\CCCCCCCCN(CCCCCCCCC)C(=O)OCCN(C)CCN(C)C [Example 15, 2-((2-(Dimethylamino)ethyl)(methyl)amino)ethyl(Z)-nonyl(octadec-9-en-1-yl)carbamate]"
90%,113.4 nm,"CCCCC/C=C\C/C=C\CCCCCCCCN(CCCCCCCCC)C(=O)OCCN(C)CCN(C)C [Example 16, 2-((2-(Dimethylamino)ethyl)(methyl)amino)ethyl nonyl((9Z,12Z)-octadeca-9,12-dien-1-yl)carbamate]"
78%,78.0 nm,"CCCCC/C=C\C/C=C\CCCCCCCCC(CCCCCCCC/C=C\C/C=C\CCCCC)OC(=O)OCCN(C)CCN1CCOCC1 [Example 21, 2-(Methyl(2-morpholinoethyl)amino)ethyl((6Z,9Z,28Z,31Z)-heptatriaconta-6,9,28,31-tetraen-19-yl)carbonate]"
75%,76.4 nm,CCCCC/C=C\C/C=C\CCCCCCCCC(CCCCCCCC/C=C\C/C=C\CCCCC)OC(=O)OCCN(CCO)CCN(C)C [Example 28]
78%,71.6 nm,"CCCCC/C=C\C/C=C\CCCCCCCCC(CCCCCCCC/C=C\C/C=C\CCCCC)OC(=O)OCCN(CCN(C)C)C1CCCCC1 [Example 32, 2-(Cyclohexyl(2-(dimethylamino)ethyl)amino)ethyl((6Z,9Z,28Z,31Z)-heptatriaconta-6,9,28,31-tetraen-19-yl)carbonate]"
87%,80.1 nm,"CCCCC/C=C\C/C=C\CCCCCCCC(=O)OCC(COC(=O)CCCCCCC/C=C\C/C=C\CCCCC)OC(=O)OCCN(CC)CCN(C)C [Example 35, 2-(((2-((2-(Dimethylamino)ethyl)(ethyl)amino)ethoxy)carbonyl)oxy)propane-1,3-diyl(9Z,9′Z,12Z,12′Z)-bis(octadeca-9,12-dienoate)]"
88%,78.3 nm,"CCCCC/C=C\C/C=C\CCCCCCCCC(CCCCCCCC/C=C\C/C=C\CCCCC)OC(=O)OCCN(CCCC)CCN(CC)CC [Example 39, 2-(Butyl(2-(diethylamino)ethyl)amino)ethyl((6Z,9Z,28Z,31Z)-heptatriaconta-6,9,28,31-tetraen-19-yl)carbonate]"
59%,69.4 nm,"CCCCC/C=C\C/C=C\CCCCCCCCC(CCCCCCCC/C=C\C/C=C\CCCCC)OC(=O)OCCN(CCC)CCN(CC)CC [Example 44, 2-((2-(Diethylamino)ethyl)(propyl)amino)ethyl((6Z,9Z,28Z,31Z)-heptatriaconta-6,9,28,31-tetraen-19-yl)carbonate]"
80%,74.3 nm,"CCCCC/C=C\C/C=C\CCCCCCCCC(CCCCCCCC/C=C\C/C=C\CCCCC)OC(=O)OCCN(CC)CCN(CCC)CCC [Example 49, 2-((2-(Dipropylamino)ethyl)(ethyl)amino)ethyl((6Z,9Z,28Z,31Z)-heptatriaconta-6,9,28,31-tetraen-19-yl)carbonate]"
79%,77.9 nm,CCCCCCCCC1CC1CCCCCCCC(=O)OCCCCCCC(CCCCCCOC(=O)CCCCCCCC1CC1CCCCCCCC)OC(=O)OCCN(CC)CCN(CC)CC (stereo not drawn) [Example 57]
79%,65.8 nm,"CCCCC/C=C\C/C=C\CCCCCCCCC(CCCCCCCC/C=C\C/C=C\CCCCC)OC(=O)OCCN(CCN(C)CCC)C(C)C [Example 63, (6Z, 9Z, 28Z, 31Z)-heptatriaconta-6,9,28,31-tetraen-19-yl(2-(isopropyl(2-(methyl(propyl)amino)ethyl)amino)ethyl)carbonate]"
81%,65.5 nm,"CCCCC/C=C\C/C=C\CCCCCCCCC(CCCCCCCC/C=C\C/C=C\CCCCC)OC(=O)OCCN(CCN(C)CC)C(C)(C)C [Example 79, 2-(tert-Butyl(2-(ethyl(methyl)amino)ethyl)amino)ethyl((6Z,9Z,28Z,31Z)-heptatriaconta-6,9,28,31-tetraen-19-yl)carbonate]"

SMILES,Nucleic acid encapsulation rate [1],Particle size (nm) [2]
"CCCCC/C=C\C/C=C\CCCCCCCCC(CCCCCCCC/C=C\C/C=C\CCCCC)OC(=O)OCCN(CC)CCN1CCOCC1 [Example 22, 2-(Ethyl(2-morpholinoethyl)amino)ethyl((6Z,9Z,28Z,31Z)-heptatriaconta-6,9,28,31-tetraen-19-yl)carbonate]",69%,69.3 nm
